Laboratory results from the supplement of paper PMC12076712.

How the values were obtained:
Assay in all cases: pIC50, kinobeads binding competition
HIPK2 = HIPK2 (UniProt Q9H2X6)
Procedure, shortened: (§1)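 Live Jurkat cells were treated with nine compound concentrations (top 30 μM, 1:4 steps) or DMSO for 60 min at 37 °C before lysis. Alternatively, Jurkat lysate or a 1:1:1:1 HEK293/K-562/HepG2/placenta lysate mix was incubated with nine concentrations (top 30 μM, 1:5 steps) for 60 min at 4 °C. Kinobeads-bound proteins were digested and quantified by TMT10 LC-MS/MS. pIC50 came from logistic dose-response fits (R drc package) of fold changes versus DMSO, in biological duplicates.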

UniProt O94804 = target: UniProt O94804
Procedure, shortened: as §1

PKN3 = PKN3 (UniProt Q6P5Z2); details: cell material: Lysate mix
Procedure, shortened: as §1

DDR1 = DDR1 (UniProt Q08345)
Chain of DDR1 (Q08345 whole entry): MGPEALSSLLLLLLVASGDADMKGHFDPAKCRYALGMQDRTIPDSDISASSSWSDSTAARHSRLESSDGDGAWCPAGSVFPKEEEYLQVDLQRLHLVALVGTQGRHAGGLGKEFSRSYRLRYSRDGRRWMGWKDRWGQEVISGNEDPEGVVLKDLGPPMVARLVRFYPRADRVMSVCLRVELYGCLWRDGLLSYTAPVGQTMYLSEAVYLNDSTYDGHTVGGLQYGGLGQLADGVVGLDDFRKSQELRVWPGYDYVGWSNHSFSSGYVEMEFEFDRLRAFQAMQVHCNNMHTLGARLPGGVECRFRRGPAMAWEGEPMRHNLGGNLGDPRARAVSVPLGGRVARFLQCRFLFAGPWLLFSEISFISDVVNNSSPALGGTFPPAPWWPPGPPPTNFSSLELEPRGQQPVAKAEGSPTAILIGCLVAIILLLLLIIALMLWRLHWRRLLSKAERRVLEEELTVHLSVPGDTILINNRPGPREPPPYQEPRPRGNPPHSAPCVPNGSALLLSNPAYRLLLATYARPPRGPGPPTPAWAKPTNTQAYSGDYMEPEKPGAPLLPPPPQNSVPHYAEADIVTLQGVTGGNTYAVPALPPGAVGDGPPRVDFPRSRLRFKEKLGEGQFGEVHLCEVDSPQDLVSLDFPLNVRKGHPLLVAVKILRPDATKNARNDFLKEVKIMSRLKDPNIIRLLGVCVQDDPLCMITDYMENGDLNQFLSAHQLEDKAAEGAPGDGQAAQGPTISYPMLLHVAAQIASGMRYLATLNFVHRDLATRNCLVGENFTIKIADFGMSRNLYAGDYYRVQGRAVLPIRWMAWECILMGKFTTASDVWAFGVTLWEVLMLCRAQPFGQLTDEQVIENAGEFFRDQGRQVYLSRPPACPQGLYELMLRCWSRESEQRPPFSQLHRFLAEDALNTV
Procedure, shortened: as §1

UniProt P50613 = target: UniProt P50613
Procedure, shortened: as §1

CDKL5 = target: T1, CDKL5 (UniProt O76039)
T1 sequence (whole entry): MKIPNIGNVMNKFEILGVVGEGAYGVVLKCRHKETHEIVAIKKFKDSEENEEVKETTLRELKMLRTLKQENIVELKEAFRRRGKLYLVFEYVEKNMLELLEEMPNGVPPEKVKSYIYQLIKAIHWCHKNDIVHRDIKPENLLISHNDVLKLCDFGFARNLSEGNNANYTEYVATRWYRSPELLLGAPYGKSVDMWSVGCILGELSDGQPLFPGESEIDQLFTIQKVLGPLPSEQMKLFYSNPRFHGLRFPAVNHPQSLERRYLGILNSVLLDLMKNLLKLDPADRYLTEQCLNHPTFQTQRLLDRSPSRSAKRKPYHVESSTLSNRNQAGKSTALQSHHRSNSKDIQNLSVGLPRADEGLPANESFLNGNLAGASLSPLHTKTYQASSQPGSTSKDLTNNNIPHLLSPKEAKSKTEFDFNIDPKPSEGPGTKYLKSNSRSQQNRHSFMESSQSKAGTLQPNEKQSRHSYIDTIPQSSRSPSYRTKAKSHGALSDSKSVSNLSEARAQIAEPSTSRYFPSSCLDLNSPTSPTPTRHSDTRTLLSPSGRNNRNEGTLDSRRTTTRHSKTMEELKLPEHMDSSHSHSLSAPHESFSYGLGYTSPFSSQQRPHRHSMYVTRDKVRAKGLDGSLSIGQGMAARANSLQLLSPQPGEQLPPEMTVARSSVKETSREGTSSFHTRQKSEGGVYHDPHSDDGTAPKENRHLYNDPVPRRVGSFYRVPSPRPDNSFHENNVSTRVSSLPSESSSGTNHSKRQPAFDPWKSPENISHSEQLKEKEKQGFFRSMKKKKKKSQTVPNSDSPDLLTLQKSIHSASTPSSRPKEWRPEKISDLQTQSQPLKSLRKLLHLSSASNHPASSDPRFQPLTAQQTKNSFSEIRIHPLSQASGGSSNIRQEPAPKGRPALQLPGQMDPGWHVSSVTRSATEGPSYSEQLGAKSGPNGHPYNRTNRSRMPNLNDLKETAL
Procedure, shortened: as §1

UniProt P78527 = target: UniProt P78527
Procedure, shortened: as §1

UniProt Q13557 = target: UniProt Q13557
Chain of UniProt Q13557 (Q13557 whole entry): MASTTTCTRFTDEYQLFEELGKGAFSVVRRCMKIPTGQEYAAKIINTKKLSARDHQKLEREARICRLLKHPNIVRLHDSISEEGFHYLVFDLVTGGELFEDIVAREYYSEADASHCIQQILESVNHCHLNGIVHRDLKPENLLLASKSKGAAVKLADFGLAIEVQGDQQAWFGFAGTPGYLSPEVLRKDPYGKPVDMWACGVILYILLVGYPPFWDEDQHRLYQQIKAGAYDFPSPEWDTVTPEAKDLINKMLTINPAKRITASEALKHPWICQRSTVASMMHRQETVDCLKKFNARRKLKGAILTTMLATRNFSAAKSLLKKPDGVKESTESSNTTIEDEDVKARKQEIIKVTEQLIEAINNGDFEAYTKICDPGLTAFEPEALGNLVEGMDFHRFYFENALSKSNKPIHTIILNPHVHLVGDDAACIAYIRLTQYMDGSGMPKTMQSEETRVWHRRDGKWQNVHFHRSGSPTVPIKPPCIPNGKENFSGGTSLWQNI
Procedure, shortened: as §1

ACVR2B = ACVR2B (UniProt Q13705)
Chain of ACVR2B (Q13705 whole entry): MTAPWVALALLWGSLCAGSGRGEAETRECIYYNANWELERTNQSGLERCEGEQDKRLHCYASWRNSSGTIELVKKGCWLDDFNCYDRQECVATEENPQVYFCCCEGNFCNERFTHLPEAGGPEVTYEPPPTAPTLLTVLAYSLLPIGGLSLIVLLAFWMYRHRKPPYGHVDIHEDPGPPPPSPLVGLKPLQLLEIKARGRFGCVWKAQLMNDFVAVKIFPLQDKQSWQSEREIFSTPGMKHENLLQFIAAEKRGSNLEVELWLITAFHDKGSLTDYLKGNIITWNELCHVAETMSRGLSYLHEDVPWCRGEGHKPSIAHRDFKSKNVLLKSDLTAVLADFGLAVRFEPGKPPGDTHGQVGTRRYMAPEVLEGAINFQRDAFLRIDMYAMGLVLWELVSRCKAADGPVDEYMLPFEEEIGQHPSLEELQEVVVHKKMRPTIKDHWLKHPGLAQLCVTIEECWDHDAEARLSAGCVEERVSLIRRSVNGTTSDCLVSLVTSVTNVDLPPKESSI
Procedure, shortened: as §1

UniProt O15111 = target: T2, UniProt O15111
T2 sequence (whole entry): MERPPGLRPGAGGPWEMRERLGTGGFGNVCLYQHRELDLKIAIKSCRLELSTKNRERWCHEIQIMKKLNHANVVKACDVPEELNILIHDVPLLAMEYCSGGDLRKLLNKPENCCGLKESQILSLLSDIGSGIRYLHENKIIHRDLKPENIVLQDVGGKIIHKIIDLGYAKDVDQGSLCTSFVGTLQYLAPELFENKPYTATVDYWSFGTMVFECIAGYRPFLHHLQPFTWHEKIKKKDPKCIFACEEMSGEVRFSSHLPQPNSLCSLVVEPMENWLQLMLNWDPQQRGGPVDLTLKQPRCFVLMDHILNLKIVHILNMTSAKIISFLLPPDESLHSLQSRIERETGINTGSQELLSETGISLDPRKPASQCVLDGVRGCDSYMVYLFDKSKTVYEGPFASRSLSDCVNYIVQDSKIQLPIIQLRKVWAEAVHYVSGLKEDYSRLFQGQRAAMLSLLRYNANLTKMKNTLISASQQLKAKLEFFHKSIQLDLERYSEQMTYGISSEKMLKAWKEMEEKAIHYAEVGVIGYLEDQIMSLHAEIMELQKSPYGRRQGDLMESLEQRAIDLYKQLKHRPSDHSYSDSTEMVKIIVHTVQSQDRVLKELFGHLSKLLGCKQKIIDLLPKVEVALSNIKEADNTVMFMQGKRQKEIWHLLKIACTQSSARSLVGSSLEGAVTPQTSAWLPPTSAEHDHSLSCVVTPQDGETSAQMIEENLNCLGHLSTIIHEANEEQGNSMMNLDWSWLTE
Procedure, shortened: as §1

BUB1 = BUB1 (UniProt O43683)
Chain of BUB1 (O43683 whole entry, looked up): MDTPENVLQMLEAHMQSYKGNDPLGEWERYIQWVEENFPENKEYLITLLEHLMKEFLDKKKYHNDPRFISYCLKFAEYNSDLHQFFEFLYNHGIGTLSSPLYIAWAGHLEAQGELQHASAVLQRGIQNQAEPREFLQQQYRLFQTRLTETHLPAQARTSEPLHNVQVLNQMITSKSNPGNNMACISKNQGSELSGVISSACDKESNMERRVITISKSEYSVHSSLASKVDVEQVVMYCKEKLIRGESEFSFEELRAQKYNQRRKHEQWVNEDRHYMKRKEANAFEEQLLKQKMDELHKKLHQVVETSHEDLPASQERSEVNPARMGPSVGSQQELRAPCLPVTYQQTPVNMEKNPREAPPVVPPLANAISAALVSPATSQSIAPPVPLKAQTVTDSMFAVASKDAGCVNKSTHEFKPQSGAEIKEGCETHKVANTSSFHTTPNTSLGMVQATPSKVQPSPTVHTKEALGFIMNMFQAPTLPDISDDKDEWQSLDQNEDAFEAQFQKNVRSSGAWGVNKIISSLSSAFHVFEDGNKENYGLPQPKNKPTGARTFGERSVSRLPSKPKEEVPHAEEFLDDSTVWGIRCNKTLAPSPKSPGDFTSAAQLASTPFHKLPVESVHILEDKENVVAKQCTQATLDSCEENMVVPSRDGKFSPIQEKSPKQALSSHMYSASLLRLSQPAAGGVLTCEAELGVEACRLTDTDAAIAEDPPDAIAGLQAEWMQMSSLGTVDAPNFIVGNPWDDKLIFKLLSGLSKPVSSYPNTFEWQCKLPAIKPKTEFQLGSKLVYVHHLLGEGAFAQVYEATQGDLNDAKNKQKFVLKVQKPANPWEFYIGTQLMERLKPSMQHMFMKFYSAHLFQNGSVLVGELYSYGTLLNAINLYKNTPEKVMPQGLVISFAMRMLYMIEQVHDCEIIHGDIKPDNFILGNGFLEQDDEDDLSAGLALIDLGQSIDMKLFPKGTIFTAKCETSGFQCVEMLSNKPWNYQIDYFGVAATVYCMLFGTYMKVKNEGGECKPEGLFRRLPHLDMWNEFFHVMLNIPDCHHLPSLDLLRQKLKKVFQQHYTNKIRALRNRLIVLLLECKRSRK
Procedure, shortened: as §1

UniProt Q13131 = target: UniProt Q13131
Chain of UniProt Q13131 (Q13131 whole entry, looked up): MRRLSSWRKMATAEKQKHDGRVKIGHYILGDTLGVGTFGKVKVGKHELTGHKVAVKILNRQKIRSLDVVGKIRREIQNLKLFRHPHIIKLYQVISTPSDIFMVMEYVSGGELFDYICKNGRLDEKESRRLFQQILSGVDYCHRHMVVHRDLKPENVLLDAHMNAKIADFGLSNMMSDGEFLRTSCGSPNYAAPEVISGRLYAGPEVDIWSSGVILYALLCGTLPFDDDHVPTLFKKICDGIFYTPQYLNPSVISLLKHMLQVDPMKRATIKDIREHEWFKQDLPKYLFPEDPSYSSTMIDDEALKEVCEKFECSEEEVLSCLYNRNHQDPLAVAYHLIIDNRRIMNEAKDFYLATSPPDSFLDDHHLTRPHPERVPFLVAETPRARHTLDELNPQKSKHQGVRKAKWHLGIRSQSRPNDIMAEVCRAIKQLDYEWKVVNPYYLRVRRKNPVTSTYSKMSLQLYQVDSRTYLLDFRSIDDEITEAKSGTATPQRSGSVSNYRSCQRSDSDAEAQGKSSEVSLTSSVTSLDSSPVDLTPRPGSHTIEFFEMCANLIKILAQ
Procedure, shortened: as §1

UniProt P68400 = target: UniProt P68400
Chain of UniProt P68400 (P68400 whole entry, looked up): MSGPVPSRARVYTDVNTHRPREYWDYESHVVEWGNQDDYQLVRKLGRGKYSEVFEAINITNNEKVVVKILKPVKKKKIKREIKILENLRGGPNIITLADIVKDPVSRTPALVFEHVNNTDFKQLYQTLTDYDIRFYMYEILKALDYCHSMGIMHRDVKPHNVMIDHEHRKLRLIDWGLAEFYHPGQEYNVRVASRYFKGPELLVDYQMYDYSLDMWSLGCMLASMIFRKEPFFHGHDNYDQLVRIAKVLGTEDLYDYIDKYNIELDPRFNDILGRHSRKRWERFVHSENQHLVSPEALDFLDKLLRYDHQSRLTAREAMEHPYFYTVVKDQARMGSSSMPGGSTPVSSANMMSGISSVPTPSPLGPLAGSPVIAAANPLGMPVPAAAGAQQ
Procedure, shortened: as §1

PAK4 = PAK4 (UniProt O96013)
Chain of PAK4 (O96013 whole entry, looked up): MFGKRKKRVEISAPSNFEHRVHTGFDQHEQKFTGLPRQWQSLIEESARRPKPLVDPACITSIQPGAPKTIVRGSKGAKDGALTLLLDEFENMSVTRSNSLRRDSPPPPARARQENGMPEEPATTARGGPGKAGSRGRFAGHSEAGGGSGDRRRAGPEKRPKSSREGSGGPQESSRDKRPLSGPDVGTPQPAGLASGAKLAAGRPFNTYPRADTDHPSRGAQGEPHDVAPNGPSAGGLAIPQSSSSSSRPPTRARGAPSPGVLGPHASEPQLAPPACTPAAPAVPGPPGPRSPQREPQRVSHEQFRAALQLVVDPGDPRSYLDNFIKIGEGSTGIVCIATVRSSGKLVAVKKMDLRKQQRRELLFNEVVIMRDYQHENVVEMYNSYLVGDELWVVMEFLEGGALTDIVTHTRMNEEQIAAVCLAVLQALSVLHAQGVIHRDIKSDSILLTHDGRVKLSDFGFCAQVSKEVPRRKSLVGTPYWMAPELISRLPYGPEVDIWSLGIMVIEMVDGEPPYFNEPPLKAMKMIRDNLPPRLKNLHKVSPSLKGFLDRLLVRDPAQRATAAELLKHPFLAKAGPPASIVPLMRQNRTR
Procedure, shortened: as §1

DAPK3 = DAPK3 (UniProt O43293)
Chain of DAPK3 (O43293 whole entry, looked up): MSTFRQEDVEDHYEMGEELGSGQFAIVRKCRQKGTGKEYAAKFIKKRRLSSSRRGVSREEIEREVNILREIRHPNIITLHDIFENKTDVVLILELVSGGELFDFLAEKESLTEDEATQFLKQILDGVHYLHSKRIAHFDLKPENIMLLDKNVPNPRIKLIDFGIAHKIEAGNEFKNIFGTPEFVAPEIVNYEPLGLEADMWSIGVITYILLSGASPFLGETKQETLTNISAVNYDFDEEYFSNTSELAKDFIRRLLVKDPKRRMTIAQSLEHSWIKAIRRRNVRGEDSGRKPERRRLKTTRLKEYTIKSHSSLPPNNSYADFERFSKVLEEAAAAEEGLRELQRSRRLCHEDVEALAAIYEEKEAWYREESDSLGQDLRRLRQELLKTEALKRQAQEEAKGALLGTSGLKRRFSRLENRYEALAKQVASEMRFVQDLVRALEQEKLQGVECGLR
Procedure, shortened: as §1

Compound | pIC50 (HIPK2; cell material: Jurkat cells) | pIC50 (HIPK2; cell material: Jurkat lysate) | pIC50 (HIPK2; cell material: Lysate mix) | pIC50 (UniProt O94804; cell material: Jurkat cells) | pIC50 (UniProt O94804; cell material: Jurkat lysate) | pIC50 (UniProt O94804; cell material: Lysate mix) | pIC50 (PKN3) | pIC50 (DDR1; cell material: Jurkat cells) | pIC50 (DDR1; cell material: Lysate mix) | pIC50 (UniProt P50613; cell material: Lysate mix) | pIC50 (CDKL5; cell material: Lysate mix) | pIC50 (UniProt P78527; cell material: Lysate mix) | pIC50 (UniProt Q13557; cell material: Lysate mix) | pIC50 (ACVR2B; cell material: Lysate mix) | pIC50 (UniProt O15111; cell material: Lysate mix) | pIC50 (BUB1; cell material: Lysate mix) | pIC50 (UniProt Q13131; cell material: Lysate mix) | pIC50 (UniProt P68400; cell material: Lysate mix) | pIC50 (PAK4; cell material: Lysate mix) | pIC50 (DAPK3; cell material: Lysate mix) | also measured
C#CCNC(=O)c1cc(Nc2cc(C3CC3)[nH]n2)nc(N2CCN(Cc3ccc(S(=O)(=O)F)cc3)CC2)n1 | 6.12 | 5.54 | 5.92 | 5.04 | < 4.52 | < 4.52 | < 4.52 | 5.54 | < 4.52 | 6.35 | 6.41 | < 4.52 | < 4.52 | < 4.52 | < 4.52 | < 4.52 | 7.2 | 5.02 | 5.58 | < 4.52 | pIC50 (DDR1; cell material: Jurkat lysate): < 4.52; pIC50 (UniProt P50613; cell material: Jurkat cells): 6.47; pIC50 (UniProt P50613; cell material: Jurkat lysate): 5.78; pIC50 (CDKL5; cell material: Jurkat cells): 6.89; pIC50 (CDKL5; cell material: Jurkat lysate): 5.95; pIC50 (UniProt P78527; cell material: Jurkat cells): < 4.52; pIC50 (UniProt P78527; cell material: Jurkat lysate): < 4.52; pIC50 (UniProt Q13557; cell material: Jurkat cells): 4.9; pIC50 (UniProt Q13557; cell material: Jurkat lysate): < 4.52; pIC50 (ACVR2B; cell material: Jurkat lysate): < 4.52; pIC50 (UniProt O15111; cell material: Jurkat cells): < 4.52; pIC50 (UniProt O15111; cell material: Jurkat lysate): < 4.52; pIC50 (BUB1; cell material: Jurkat cells): 5; pIC50 (BUB1; cell material: Jurkat lysate): < 4.52; pIC50 (UniProt Q13131; cell material: Jurkat cells): 6.64; pIC50 (UniProt Q13131; cell material: Jurkat lysate): 6.58; pIC50 (UniProt P68400; cell material: Jurkat cells): 5.62; pIC50 (UniProt P68400; cell material: Jurkat lysate): < 4.52; pIC50 (PAK4; cell material: Jurkat cells): 5.78; pIC50 (PAK4; cell material: Jurkat lysate): 5.19
C#CCNC(=O)c1cc(Nc2cc(C)[nH]n2)nc(N2CCN(Cc3ccc(S(=O)(=O)F)cc3)CC2)n1 | – | – | 4.98 | – | – | < 4.52 | < 4.52 | – | < 4.52 | 5.14 | 5.23 | < 4.52 | < 4.52 | < 4.52 | < 4.52 | < 4.52 | 6.3 | 4.89 | 4.8 | 4.77 | –
Cc1cc(Nc2cc(C(=O)NCCNC(=O)OC3CC/C=C/CCC3)nc(N3CCN(Cc4ccc(S(=O)(=O)F)cc4)CC3)n2)n[nH]1 (centres undefined) | – | – | < 4.52 | – | – | < 4.52 | < 4.52 | – | < 4.52 | < 4.52 | < 4.52 | < 4.52 | < 4.52 | < 4.52 | < 4.52 | < 4.52 | 5.24 | < 4.52 | < 4.52 | < 4.52 | –
O=C(NCCNC(=O)c1cc(Nc2cc(C3CC3)[nH]n2)nc(N2CCN(Cc3ccc(S(=O)(=O)F)cc3)CC2)n1)OC1CC/C=C/CCC1 (centres undefined) | 5.49 | < 4.52 | < 4.52 | < 4.52 | < 4.52 | < 4.52 | < 4.52 | < 4.52 | < 4.52 | – | 5.12 | < 4.52 | < 4.52 | < 4.52 | < 4.52 | < 4.52 | 5.56 | < 4.52 | < 4.52 | < 4.52 | pIC50 (DDR1; cell material: Jurkat lysate): < 4.52; pIC50 (UniProt P50613; cell material: Jurkat cells): 6.12; pIC50 (UniProt P50613; cell material: Jurkat lysate): 4.7; pIC50 (CDKL5; cell material: Jurkat lysate): 4.89; pIC50 (UniProt P78527; cell material: Jurkat cells): < 4.52; pIC50 (UniProt P78527; cell material: Jurkat lysate): < 4.52; pIC50 (UniProt Q13557; cell material: Jurkat cells): < 4.52; pIC50 (UniProt Q13557; cell material: Jurkat lysate): < 4.52; pIC50 (ACVR2B; cell material: Jurkat cells): < 4.52; pIC50 (ACVR2B; cell material: Jurkat lysate): < 4.52; pIC50 (UniProt O15111; cell material: Jurkat cells): < 4.52; pIC50 (UniProt O15111; cell material: Jurkat lysate): < 4.52; pIC50 (BUB1; cell material: Jurkat cells): < 4.52; pIC50 (BUB1; cell material: Jurkat lysate): < 4.52; pIC50 (UniProt Q13131; cell material: Jurkat cells): 6.8; pIC50 (UniProt Q13131; cell material: Jurkat lysate): 5.32; pIC50 (UniProt P68400; cell material: Jurkat lysate): < 4.52; pIC50 (PAK4; cell material: Jurkat cells): 6.17; pIC50 (PAK4; cell material: Jurkat lysate): < 4.52; pIC50 (DAPK3; cell material: Jurkat cells): < 4.52
CCNC(=O)c1cc(Nc2cc(C)[nH]n2)nc(N2CCN(Cc3ccc(S(=O)(=O)F)cc3)CC2)n1 | – | – | 4.77 | – | – | < 4.52 | < 4.52 | – | < 4.52 | 5 | 5.11 | < 4.52 | < 4.52 | < 4.52 | < 4.52 | < 4.52 | 6.97 | 5.15 | 4.7 | 5.14 | –
CCNC(=O)c1cc(Nc2cc(C3CC3)[nH]n2)nc(N2CCN(Cc3ccc(S(=O)(=O)F)cc3)CC2)n1 | – | – | 5.72 | – | – | < 4.52 | < 4.52 | – | < 4.52 | 6.33 | 6.16 | < 4.52 | < 4.52 | < 4.52 | < 4.52 | < 4.52 | 7.03 | 5.39 | 5.27 | 4.83 | –
